Holding throughout (assay type): cell-based, Human
Series [1] has as its system BUB1B. Briefly: Western blot, BUB1B expression in Caki-1 treated with TG-101209 alternatives. Conditions: Caki-1, 5 μM of target drug, 1 day (FIG. 41; method says 2 days). The procedure:
(§1) Cell culture 2: Caki-1 was purchased from CLS Cell Lines Service (Germany). The cells were maintained in McCoy's SA (modified) medium (16600082, Thermo Fisher Scientific, USA) and supplemented with 10% fetal bovine serum (FBS, F7524, Sigma-Aldrich), 1% Penicillin/Streptomycin (P4333, Sigma-Aldrich).
The target drugs developed as alternatives to TG-101209, were dissolved in 0.1% DMSO (41639, Sigma-Aldrich). Caki-1 cells from cell culture 2 were seeded in a 6-well plate at 3×10^5 cells per well. […]
The cells were washed with PBS solution and then lysed with CelLytic M (C2978, Sigma-Aldrich) lysis buffer containing protease inhibitors (11836170001, Roche). The cell lysates were centrifuged at 12 000 rpm for 10 min and supernatants were collected. Protein Assay Dye Reagent (5000006, Bio-Rad) was used for the determination of protein concentration. The absorbance of the proteins was measured spectrophotometrically at 595 nm by a microplate reader (Hidex Sense Beta Plus). Protein electrophoresis was performed using Mini-PROTEAN® TGX™ Precast Gels (4561086, Bio-Rad) and then the separated proteins were transferred to a Trans-Blot Turbo Mini 0.2 um PVDF Transfer Packs membrane (1704158, Bio-Rad) by using Trans-Blot® Turbo™ Transfer System (Bio-Rad). The membrane was blocked with 5% skim milk for 30 min at 4° C. with gentle rocking. After blocking, the membrane was treated with primary antibodies: Anti-BUB1B (HPA008419, Human Protein Atlas, Sweden) and Anti-Beta actin (ab8227, Abcam) as a loading control overnight at 4° C. on a rocking platform. After the treatment of primary antibodies, the membrane was washed three times with TBS-T buffer (A09-7500-100, Medicago). Then, Goat anti-Rabbit IgG-HRP (ab205718, Abcam) was treated as the secondary antibody for 30 min at 4° C. with gentle rocking.

Series [2] relates to Caki-1 cells. The experiment in a line: MTT cell viability assay of Caki-1 treated with TG-101209 and its alternatives. To be noted: for cell viability (MTT assay) / Ranking, Cell viability (%): 1 day; for Ranking, Cell viability (%): top five target drugs, MTT assay, 10 μM, rank 1 = greatest reduction; for IC50: Homo sapiens, FIG. 43, assay not named, presumably Caki-1 cell viability. The procedure:
as §1
The cytotoxic effects of the TG-101209 and its alternatives on the Caki-1 cells were tested by MTT (Thiazolyl Blue Tetrazolium Bromide) method. 1.5×10^4 cells were seeded per well in a 96-well plate in 100 μL growth media. […] After the incubation period, 5 mg/ml MTT (M2128, Sigma-Aldrich) solution in PBS (10 μL) was added to each well. After 1 hour, the MTT solution and all media were removed from the wells. 100 μl of DMSO was added and mixed to dissolve the formazan crystals. Cell viability was analysed by measuring the absorbance of the dissolved formazan at a wavelength of 570 nm with a microplate reader (Hidex Sense Beta Plus).
In general terms: Tetrazolium dyes change colour on reduction, which living cells bring about.

The test system of series [3] is Caki-1 cells. Briefly: LDH cytotoxicity assay of Caki-1. Conditions: 1 day; for cytotoxicity (LDH assay): Caki-1, 10 μM; for Ranking, Cytotoxicity (%): top five target drugs, LDH assay, 10 μM, rank 1 = highest cytotoxicity. Here is the method: as §1
Lactate dehydrogenase (LDH) assay was performed with LDH Assay Kit (ab65393). 1.5×10^4 cells per well (from cell culture 2) were seeded in a 96-well plate and drugs were treated at 10 μM for 1 day with 200 μl media. 20 μl of media was analysed with LDH Assay Kit as per manufacturer's instruction.

The structures appear in SMILES notation. “Also recorded” adds a separate entry of the source.

For `Cc1ccc(Nc2ncc(C)c(Nc3cccc(S(=O)(=O)NC(C)(C)C)c3)n2)cc1S(N)(=O)=O` [M66, N-(tert-butyl)-3-((5-methyl-2-((4-methyl-3-sulfamoylphenyl)amino)pyrimidin-4-yl)amino)benzenesulfonamide], the “expression levels of BUB1B” value in series [1] was “significantly lower the expression levels of BUB1B”. Also, the “cell viability (MTT assay)” value in series [2] (Caki-1, 5 μM) is “greatest”. In series [2] (Caki-1, 10 μM), the “cell viability (MTT assay)” value was “most profound effect on the cell viability”. Besides, in series [2], the “Ranking, Cell viability (%)” value was found to be 3. Further, in series [3], the “cytotoxicity (LDH assay)” value is “exhibited cytotoxicity” and the “Ranking, Cytotoxicity (%)” value amounted to 4.

The IC50 is the concentration that gives 50% inhibition. A high value points to weaker potency. For the compound `Cc1cnc(Nc2ccc(N3CCN(C)CC3)cc2)nc1Nc1cccc(S(=O)(=O)NC2CCC2)c1` [M5, N-cyclobutyl-3-((5-methyl-2-((4-(4-methylpiperazin-1-yl)phenyl)amino)pyrimidin-4-yl)amino)benzenesulfonamide], the “expression levels of BUB1B” value in series [1] is reported as “significantly lower the expression levels of BUB1B”. The “cell viability (MTT assay)” value in series [2] (Caki-1, 5 μM) was “greatest”. Besides, in series [2] (Caki-1, 10 μM), the “cell viability (MTT assay)” value is “greatest reduction of cell viability; also recorded: greatest reduction in cell viability”. Also, the “cell viability (MTT assay)” value in series [2] (Caki-1, 10 μM, listed as MS) is on record as “most profound effect on the cell viability”. In series [2], the IC50 is approximately 3 µM and the “Ranking, Cell viability (%)” value is on record as 1. In series [3], the “cytotoxicity (LDH assay)” value was “exhibited cytotoxicity; also recorded: highest cytotoxicity; also recorded: greatest cytotoxicity” and the “Ranking, Cytotoxicity (%)” value was determined as 2.

For `Cc1cnc(Nc2ccc(N3CCN(C)CC3)cc2)nc1Nc1cccc(S(=O)(=O)N2CCOCC2)c1` [M7, 5-methyl-N2-(4-(4-methylpiperazin-1-yl)phenyl)-N4-(3-(morpholinosulfonyl)phenyl)pyrimidine-2,4-diamine], the “expression levels of BUB1B” value in series [1] was “significantly lower the expression levels of BUB1B”. This compound registered a concentration for half-maximal inhibition (IC50) in series [2] of more than 3 µM.

With `Cc1cnc(Nc2ccc(N3CCN(C)CC3)cc2)nc1Nc1cccc(S(=O)(=O)Nc2ccccc2)c1` [M3, 3-((5-methyl-2-((4-(4-methylpiperazin-1-yl)phenyl)amino)pyrimidin-4-yl)amino)-N-phenylbenzenesulfonamide], the “expression levels of BUB1B” value in series [1] is “significantly lower the expression levels of BUB1B”. The compound further displayed a half-inhibitory concentration (IC50) in series [2] of approximately 3 µM.

For the compound `Cc1cn(-c2cc(Nc3ncc(C)c(Nc4cccc(S(=O)(=O)NC(C)(C)C)c4)n3)cc(C(F)(F)F)c2)cn1` [M64, N-(tert-butyl)-3-((5-methyl-2-((3-(4-methyl-1H-imidazol-1-yl)-5-(trifluoromethyl)phenyl)amino)pyrimidin-4-yl)amino)benzenesulfonamide], the “expression levels of BUB1B” value in series [1] is recorded as “significantly lower the expression levels of BUB1B”. Also, the 50% inhibitory concentration (IC50) in series [2] was more than 3 µM.

With `COc1cc(Nc2ncc(C)c(Nc3cccc(S(=O)(=O)NC(C)(C)C)c3)n2)cc(OC)c1` [M79, N-(tert-butyl)-3-((2-((3,5-dimethoxyphenyl)amino)-5-methylpyrimidin-4-yl)amino)benzenesulfonamide], in series [1], the “expression levels of BUB1B” value was “significantly lower the expression levels of BUB1B”. Moreover, the IC50 in series [2] was approximately 3 µM.

The record behind these values is patent US20250188041A1, “NEW COMPOUNDS AND TREATMENT OF RENAL CELL CARCINOMA” (Trustlife Global Inc., priority 2022, published 2025).
